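How tested: cells in 96-well plates exposed to compound for 48 hours at five concentrations. At the TGI there is no net growth.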
Assays:
Test in all cases: DTP human tumour cell line panel, 48 h
OVCAR-8 ovarian = system: OVCAR-8 ovarian
SK-MEL-2 melanoma = system: SK-MEL-2 melanoma
OVCAR-4 ovarian = system: OVCAR-4 ovarian
OVCAR-5 ovarian = system: OVCAR-5 ovarian
SK-MEL-28 melanoma = system: SK-MEL-28 melanoma
A549 NSCLC = system: A549 NSCLC
LOX IMVI melanoma = system: LOX IMVI melanoma
HCT-15 colon = system: HCT-15 colon
HOP-62 NSCLC = system: HOP-62 NSCLC
SNB-75 CNS = system: SNB-75 CNS
SN12C renal = system: SN12C renal
PC-3 prostate = system: PC-3 prostate
CCRF-CEM leukemia = system: CCRF-CEM leukemia
UO-31 renal = system: UO-31 renal
A498 renal = system: A498 renal
MOLT-4 leukemia = system: MOLT-4 leukemia
OVCAR-3 ovarian = system: OVCAR-3 ovarian
DU-145 prostate = system: DU-145 prostate
NCI-H23 lung = system: NCI-H23 lung
HCT-116 colon = system: HCT-116 colon
SK-MEL-5 melanoma = system: SK-MEL-5 melanoma
MDA-MB-231 breast = system: MDA-MB-231 breast
K-562 leukemia = system: K-562 leukemia
MDA-N = system: MDA-N
COLO 205 colon = system: COLO 205 colon
SNB-19 CNS = system: SNB-19 CNS
SF-268 CNS = system: SF-268 CNS
NCI-H522 lung = system: NCI-H522 lung
786-0 renal = system: 786-0 renal
SR leukemia = system: SR leukemia
IGROV1 ovarian = system: IGROV1 ovarian
SF-295 CNS = system: SF-295 CNS
SW-620 colon = system: SW-620 colon
EKVX NSCLC = system: EKVX NSCLC
TK-10 renal = system: TK-10 renal
RPMI-8226 leukemia = system: RPMI-8226 leukemia
HT29 colon = system: HT29 colon
KM12 colon = system: KM12 colon
MALME-3M melanoma = system: MALME-3M melanoma
UACC-62 melanoma = system: UACC-62 melanoma
MDA-MB-435 = system: MDA-MB-435
CAKI-1 renal = system: CAKI-1 renal
U251 CNS = system: U251 CNS
HCC-2998 colon = system: HCC-2998 colon
UACC-257 melanoma = system: UACC-257 melanoma
HOP-92 NSCLC = system: HOP-92 NSCLC
RXF 393 renal = system: RXF 393 renal
HL-60(TB) leukemia = system: HL-60(TB) leukemia
ACHN renal = system: ACHN renal
T-47D breast = system: T-47D breast
NCI/ADR-RES ovarian = system: NCI/ADR-RES ovarian
NCI-H460 lung = system: NCI-H460 lung
HS 578T breast = system: HS 578T breast
NCI-H226 lung = system: NCI-H226 lung
MCF7 breast = system: MCF7 breast
SK-OV-3 ovarian = system: SK-OV-3 ovarian
M14 melanoma = system: M14 melanoma

Measured: TGI

CC1=CCC[C@]2(C)C1=CC(=O)O[C@H]2c1ccoc1
not listed: M14 melanoma
> 100 µM: all other assays above

COc1ccc(C(CC(=O)c2ccccc2)C(=O)c2ccc3c(c2)OCO3)cc1 (stereo not drawn)
not listed: OVCAR-4 ovarian | OVCAR-5 ovarian | LOX IMVI melanoma | OVCAR-3 ovarian | HCT-116 colon | NCI-H522 lung | HT29 colon | HOP-92 NSCLC | RXF 393 renal | HS 578T breast
> 100 µM: all other assays above
